US8614242B2, “1-(heterocyclic carbonyl)-2-substituted pyrrolidines” (Bayer Intellectual Property GmbH, priority 2010, dated 2013)

What was measured:
[1] = logP by HPLC on reversed-phase column (EEC Directive 79/831 Annex V.A8); assay type: physicochemical; settings: HPLC on reversed-phase column (C 18), 40° C., 0.1% aqueous formic acid and acetonitrile, linear gradient 10% to 90% acetonitrile
Procedure: In table 1, the logP values were determined in accordance with EEC Directive 79/831 Annex V.A8 by HPLC (High Performance Liquid Chromatography) on a reversed-phase column (C 18), using the method described below: Temperature: 40° C.; Mobile phases: 0.1% aqueous formic acid and acetonitrile; linear gradient from 10% acetonitrile to 90% acetonitrile. Calibration was carried out using unbranched alkan-2-ones (comprising 3 to 16 carbon atoms) with known logP values (determination of the logP values by the retention times using linear interpolation between two successive alkanones). lambda-max-values were determined using UV-spectra from 200 nm to 400 nm and the peak values of the chromatographic signals.

[2] = system: Alternaria solani; test: In vivo preventive test on Alternaria solani (tomato); settings: 500 ppm of active ingredient, evaluated 7 days after inoculation
Procedure: The plants remain for one day in an incubation cabinet at approximately 22° C. and a relative atmospheric humidity of 100%. Then the plants are placed in an incubation cabinet at approximately 20° C. and a relative atmospheric humidity of 96%.

[3] = system: Pyrenophora teres; test: In vivo preventive test on Pyrenophora teres (barley); settings: 500 ppm of active ingredient, evaluated 7-9 days after inoculation
Procedure: The plants remain for 48 hours in an incubation cabinet at 22° C. and a relative atmospheric humidity of 100%.

[4] = system: Sphaerotheca fuliginea; test: In vivo preventive test on Sphaerotheca fuliginea (cucumber); settings: 500 ppm of active ingredient, evaluated 7 days after inoculation

Compound	logP [1]	Efficacy [2] [%]	Efficacy [3] [%]	Efficacy [4] [%]
CC(c1ccccc1Cl)C1CCCN1C(=O)c1c(C(F)F)nn(C)c1F (mixture of isomers) [Example 62]	3.29			
CC(c1ccccc1Cl)C1CCCN1C(=O)c1c(C(F)F)nn(C)c1Cl (mixture of isomers) [Example 63]	3.46			
CC(c1ccc(Cl)cc1Cl)C1CCCN1C(=O)c1c(C(F)F)nn(C)c1F (mixture of isomers) [Example 71]	3.87			
CC(c1ccc(Cl)cc1Cl)C1CCCN1C(=O)c1c(C(F)F)nn(C)c1Cl (mixture of isomers) [Example 72]	4.06			
CC(c1cc(Cl)ccc1Cl)C1CCCN1C(=O)c1c(C(F)F)nn(C)c1F (mixture of isomers) [Example 73]	3.76			
CC(c1cc(Cl)ccc1Cl)C1CCCN1C(=O)c1c(C(F)F)nn(C)c1Cl (mixture of isomers) [Example 74]	3.96			
CC(c1c(Cl)cccc1Cl)C1CCCN1C(=O)c1c(C(F)F)nn(C)c1F (mixture of isomers) [Example 78]	3.52			
CC(c1c(Cl)cccc1Cl)C1CCCN1C(=O)c1c(C(F)F)nn(C)c1Cl (mixture of isomers) [Example 79]	3.81			
Cn1nc(C(F)F)c(C(=S)N2CCCC2Cc2ccccc2Cl)c1F (racemic) [Example 61]	3.83	100	100	95
Cn1nc(C(F)F)c(C(=O)N2CCCC2Cc2ccc(C(C)(C)C)cc2)c1F (racemic) [Example 68]	4.24	94	100	
Cn1nc(C(F)F)c(C(=O)N2CCCC2Cc2cccc(Cl)c2Cl)c1F (racemic) [Example 69]	3.64	100	100	88
Cn1nc(C(F)F)c(C(=S)N2CCCC2Cc2cccc(Cl)c2Cl)c1F (racemic) [Example 70]	4.46	95	100	
Cn1nc(C(F)F)c(C(=O)N2CCCC2Cc2c(Cl)cccc2Cl)c1Cl (racemic) [Example 75]	3.50	90	100	
Cn1nc(C(F)F)c(C(=S)N2CCCC2Cc2c(Cl)cccc2Cl)c1F (racemic) [Example 77]	4.06	100	100	95
Cn1nc(C(F)F)c(C(=O)N2CCCC2Cc2ccc(Br)cc2)c1F (racemic) [Example 80]	3.39	100	100	89
Cn1nc(C(F)F)c(C(=O)N2CCCC2Cc2cccc3ccccc23)c1F (racemic) [Example 83]	3.52	100	100	
Cn1nc(C(F)F)c(C(=O)N2CCCC2CCc2ccccc2)c1F (racemic) [Example 84]	3.02	90	100	
Cn1nc(C(F)F)c(C(=O)N2CCCC2CS(=O)(=O)c2ccccc2)c1F (racemic) [Example 87]	2.13			
Cn1nc(C(F)F)c(C(=O)N2CCCC2CS(=O)(=O)c2ccccc2)c1Cl (racemic) [Example 88]	2.20			

Compound	logP [1]	Efficacy [2] [%]	Efficacy [3] [%]	Efficacy [4] [%]
Cc1ccccc1C1CCCN1C(=O)c1c(C(F)F)nn(C)c1Cl (centres unmarked) [Example 1]	2.90	80	80	
Cc1ccccc1C1CCCN1C(=O)c1c(C(F)F)nn(C)c1F (centres unmarked) [Example 2]	2.75	90	100	95
COc1ccccc1C1CCCN1C(=O)c1c(C(F)F)nn(C)c1F (centres unmarked) [Example 3]	2.59	80		
COc1ccc(C2CCCN2C(=O)c2c(C(F)F)nn(C)c2F)cc1 (centres unmarked) [Example 4]	2.42	80		
Cn1nc(C(F)F)c(C(=O)N2CCCC2c2ccccc2Cl)c1Cl (centres unmarked) [Example 5]	3.04	80	80	
Cn1nc(C(F)F)c(C(=O)N2CCCC2c2ccccc2Cl)c1F (centres unmarked) [Example 6]	2.90	100	100	90
Cn1nc(C(F)F)c(C(=O)N2CCCC2c2ccc(Cl)cc2)c1Cl (centres unmarked) [Example 7]	3.04	95	70	
Cn1nc(C(F)F)c(C(=O)N2CCCC2c2ccc(Cl)cc2)c1F (centres unmarked) [Example 8]	2.90	100	100	
Cn1nc(C(F)F)c(C(=O)N2CCCC2c2cc(F)cc(F)c2)c1Cl (centres unmarked) [Example 9]	2.82		90	
Cn1nc(C(F)F)c(C(=O)N2CCCC2c2cc(F)cc(F)c2)c1F (centres unmarked) [Example 10]	2.70	95	100	85
Cn1nc(C(F)F)c(C(=O)N2CCCC2c2ccc3c(c2)OCO3)c1F (centres unmarked) [Example 11]	2.35		70	
Cn1nc(C(F)F)c(C(=O)N2CCCC2c2ccc(C(C)(C)C)cc2)c1Cl (centres unmarked) [Example 12]	3.90	90	95	
Cn1nc(C(F)F)c(C(=O)N2CCCC2c2ccc(C(C)(C)C)cc2)c1F (centres unmarked) [Example 13]	3.74	100	100	93
Cn1nc(C(F)F)c(C(=O)N2CCCC2c2ccccc2C(F)(F)F)c1Cl (centres unmarked) [Example 14]	3.19	95	90	
Cn1nc(C(F)F)c(C(=O)N2CCCC2c2ccccc2C(F)(F)F)c1F (centres unmarked) [Example 15]	3.09	95	100	
Cn1nc(C(F)F)c(C(=S)N2CCCC2c2cccc(C(F)(F)F)c2)c1Cl (centres unmarked) [Example 19]	3.79		100	
Cn1nc(C(F)F)c(C(=O)N2CCCC2c2ccc(C(F)(F)F)cc2)c1Cl (centres unmarked) [Example 20]	3.25	70	70	
Cn1nc(C(F)F)c(C(=O)N2CCCC2c2ccc(Cl)cc2Cl)c1Cl (centres unmarked) [Example 23]	3.57	95	100	
Cn1nc(C(F)F)c(C(=O)N2CCCC2c2ccc(Cl)c(Cl)c2)c1Cl (centres unmarked) [Example 25]	3.37	95	95	

Compound	logP [1]	Efficacy [2] [%]	Efficacy [3] [%]	Efficacy [4] [%]
Cn1nc(C(F)F)c(C(=O)N2CCCC2c2ccc(-c3ccccc3)cc2)c1F (centres unmarked) [Example 29]	3.50	95	100	
Cn1nc(C(F)F)c(C(=O)N2CCCC2c2ccc(-c3ccccc3)cc2)c1Cl (centres unmarked) [Example 30]	3.65		100	
Cn1nc(C(F)F)c(C(=O)N2CCCC2c2ccccc2Br)c1Cl (centres unmarked) [Example 31]	3.09	90	95	
Cn1nc(C(F)F)c(C(=O)N2CCCC2c2cccc(Br)c2)c1Cl (centres unmarked) [Example 33]	3.06	95	100	
Cn1nc(C(F)F)c(C(=O)N2CCCC2c2cc(C(F)(F)F)cc(C(F)(F)F)c2)c1Cl (centres unmarked) [Example 40]	3.79	95	95	
Cn1nc(C(F)F)c(C(=O)N2CCCC2c2cccc3ccccc23)c1F (centres unmarked) [Example 41]	3.08		90	75
Cn1nc(C(F)F)c(C(=O)N2CCCC2c2ccco2)c1F (centres unmarked) [Example 42]	2.13			
Cn1nc(C(F)F)c(C(=O)N2CCCC2c2ccccn2)c1F (centres unmarked) [Example 43]	0.92			
Cn1nc(C(F)F)c(C(=O)N2CCCC2c2cccnc2)c1F (centres unmarked) [Example 44]	0.48			
Cn1nc(C(F)F)c(C(=O)N2CCCC2c2cccs2)c1F (centres unmarked) [Example 45]	2.39	90	95	
Cn1nc(C(F)F)c(C(=O)N2CCCC2c2cnc3ccccc3c2)c1F (centres unmarked) [Example 46]	1.50			
Cn1nc(C(F)F)c(C(=O)N2CCCC2c2ccc3ncccc3c2)c1F (centres unmarked) [Example 47]	1.14			
Cn1nc(C(F)F)c(C(=O)N2CCCC2c2cc3ccccc3s2)c1F (centres unmarked) [Example 48]	3.11		100	93
Cn1nc(C(F)F)c(C(=O)N2CCCC2c2cc3ccccc3s2)c1Cl (centres unmarked) [Example 49]	3.25		95	
Cn1nc(C(F)F)c(C(=O)N2CCCC2c2nc3ccccc3s2)c1Cl (centres unmarked) [Example 50]	2.61			
Cn1nc(C(F)F)c(C(=O)N2CCCC2c2nc3ccccc3s2)c1F (centres unmarked) [Example 51]	2.49		95	
Cn1nc(C(F)F)c(C(=O)N2CCC[C@H]2COc2c(Cl)cc(Cl)cc2Cl)c1Cl [Example 81]	4.36			100
Cn1nc(C(F)F)c(C(=O)N2CCC[C@H]2COc2ccc(Cl)cc2)c1F [Example 85]	3.29			
Cn1nc(C(F)F)c(C(=O)N2CCC[C@H]2COc2ccc(Cl)cc2)c1Cl [Example 86]	3.44			
